According to PubChem BioAssay (NCI):
Several values for one entry are separate records, joined by “and”; a condition that tells them apart may be missing. Equal values may be shown once.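 Exposure lasted 48 hours, with cells grown in 96-well plates and compounds tested at five concentrations. GI50: concentration for 50% inhibition of growth. Definition used: TGI = concentration required for complete inhibition of growth.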

Key:
Assay in all cases: NCI tumour cell line growth inhibition, 48 h
HCC-2998 colon = system: HCC-2998 colon
HOP-92 NSCLC = system: HOP-92 NSCLC
IGROV1 ovarian = system: IGROV1 ovarian
K-562 leukemia = system: K-562 leukemia
KM12 colon = system: KM12 colon
MCF7 breast = system: MCF7 breast
MDA-MB-435 = system: MDA-MB-435
RPMI-8226 leukemia = system: RPMI-8226 leukemia
SNB-19 CNS = system: SNB-19 CNS
UO-31 renal = system: UO-31 renal

| SMILES | TGI (HCC-2998 colon) | TGI (HOP-92 NSCLC) | TGI (IGROV1 ovarian) | TGI (K-562 leukemia) | TGI (KM12 colon) | TGI (MCF7 breast) | TGI (MDA-MB-435) | TGI (RPMI-8226 leukemia) | TGI (SNB-19 CNS) | TGI (UO-31 renal) | GI50 (HCC-2998 colon) | GI50 (HOP-92 NSCLC) | GI50 (K-562 leukemia) | GI50 (KM12 colon) | GI50 (MCF7 breast) | GI50 (RPMI-8226 leukemia) | GI50 (SNB-19 CNS) | GI50 (UO-31 renal) |
| --- | --- | --- | --- | --- | --- | --- | --- | --- | --- | --- | --- | --- | --- | --- | --- | --- | --- | --- |
| NC1=Nc2cc(C(F)(F)F)ccc2Sc2nc3ccccc3n21 | > 100 µM | 80.4 µM | > 100 µM | > 100 µM | > 100 µM | > 100 µM | > 100 µM | > 100 µM | > 100 µM | > 100 µM |  |  |  |  |  |  |  |  |
| CN(C(=O)Cc1ccccc1)n1cn[n+](CC(=O)OC(C)(C)C)c1 | > 10 µM | > 10 µM | > 10 µM | > 10 µM | > 10 µM | > 10 µM | > 10 µM | > 10 µM | > 10 µM | > 10 µM |  |  |  |  |  |  |  |  |
| CC(C)c1cc(=O)[nH]c2cc(N)ccc12 | > 100 µM | > 100 µM | > 100 µM | > 100 µM | > 100 µM | > 100 µM | > 100 µM | > 100 µM | > 100 µM | > 100 µM |  |  |  |  |  |  |  |  |
| CN(CCN)[C@H](CSSC[C@@H](c1ccccc1O)N(C)CCN)c1ccccc1O | 25.6 µM | 35.6 µM |  | 24.3 µM | 28.2 µM | > 52.7 µM | 42.8 µM | 43.2 µM | 26.2 µM | 23.9 µM |  |  |  |  |  |  |  |  |
| COCN1C(=O)[C@@H]2CCCN2C(=O)c2ccc(N)cc21 | > 100 µM | > 100 µM | > 100 µM | > 100 µM | > 100 µM | > 100 µM | > 100 µM | > 100 µM | > 100 µM | > 100 µM |  |  |  |  |  |  |  |  |
| C=C1OC2OC(C)C(NC(=O)OCC(Cl)(Cl)Cl)C(OC(C)=O)C2O1 (centres undefined) | > 100 µM | > 100 µM | > 100 µM | > 100 µM | > 100 µM | > 100 µM | > 100 µM | > 100 µM | > 100 µM | > 100 µM |  |  |  |  |  |  |  |  |
| CCN(CC)c1c(C(C)(C)C)c(=O)n2ccsc2c1OC(C)=O | 32.2 µM | 31.2 µM | 31.2 µM | > 100 µM | 30.6 µM | 28.9 µM | 32.5 µM | > 100 µM | 30.4 µM | 31.7 µM |  |  |  |  |  |  |  |  |
| CCCC(=O)Nc1cc(C(=O)N2C[C@H]3C[C@@]34C2=CC(=O)c2[nH]cc(C)c24)n(COC)c1 | 0.361 µM and 0.336 µM | 2.64 µM and 0.728 µM |  | 50 µM and 18.8 µM | 2.29 µM and 14.7 µM | 6.32 µM and 0.661 µM | 1.6 µM and 0.537 µM | 2.84 µM and 0.776 µM | 29.1 µM and 13 µM | 3.64 µM | 0.14 µM | 0.291 µM | 0.0925 µM | 0.282 µM | 0.0139 µM | 0.176 µM | 0.326 µM | 0.561 µM |
| CCOC(=O)c1ccc(N(CCOS(C)(=O)=O)CCOS(C)(=O)=O)cc1 | > 100 µM | > 100 µM | > 100 µM | > 100 µM | > 100 µM | > 100 µM | > 100 µM | > 100 µM | > 100 µM | 39.3 µM |  |  |  |  |  |  |  |  |
| Cc1nn2c(=O)c([N+](=O)[O-])c(/C=C/c3ccc(F)cc3)nc2s1 | 16.4 µM | 26.3 µM | 22.6 µM | > 31.6 µM | 16.3 µM | 13.3 µM | 10.5 µM | 19.7 µM | 23.2 µM | 16.2 µM |  |  |  |  |  |  |  |  |
| Cc1sc(/N=C/C2=C(O)CC(C)(C)CC2=O)nc1-c1ccccc1 | > 100 µM | > 100 µM | > 100 µM | > 100 µM | > 100 µM | > 100 µM | > 100 µM | > 100 µM | > 100 µM | > 100 µM |  |  |  |  |  |  |  |  |
| O=C1c2cc3c(cc2NC(c2ccccc2F)C1O)OCO3 (centres undefined) | > 75.1 µM | > 100 µM | > 100 µM | > 100 µM | > 100 µM | > 100 µM | 13.6 µM | > 100 µM | > 56.1 µM | > 75.8 µM |  |  |  |  |  |  |  |  |
| CC1CC(=O)N(N(C)C)C2(C#N)C(=O)N=C(N)C12C#N (centres undefined) | > 100 µM | > 100 µM | > 100 µM | 59.6 µM | > 100 µM | > 100 µM | > 100 µM | 99.1 µM | > 100 µM | > 100 µM |  |  |  |  |  |  |  |  |
| CC(=O)O[C@H]1[C@@H](N2CCOCC2)C[C@H]2[C@@H]3CC=C4C[C@@H](N5CCCC5)CC[C@]4(C)[C@H]3CC[C@@]21C | > 100 µM | > 100 µM | > 100 µM | > 100 µM | > 100 µM | > 100 µM | > 100 µM | > 100 µM | > 100 µM | > 100 µM |  |  |  |  |  |  |  |  |
| CNC(=O)OCc1cnc([N+](=O)[O-])n1C | > 100 µM | > 100 µM | > 100 µM | > 100 µM | > 100 µM | > 100 µM | > 100 µM | > 100 µM |  | > 100 µM |  |  |  |  |  |  |  |  |
| COC(=O)[C@@H]1c2c(oc3cc(CO)cc(O)c3c2=O)C=C[C@H]1O |  | 22.4 µM | 26.2 µM | > 100 µM | 14.8 µM | 12 µM | 15.5 µM | 9.72 µM | 33.5 µM | 14.2 µM |  |  |  |  |  |  |  |  |
